In patent US20070112056A1, “Stable modifications of tegaserod hydrogen maleate” (priority 2003, published 2007):
Each block holds one molecule with its values, some of them ahead of it.

Assays:
Type in all cases: physicochemical
Solubility = experiment: Solubility
[1] = Stability of the crystal form when exposed to heat (DSC thermogram)
Method: Characteristic for the modification A is the thermogram in differential scanning calorimetry (DSC). It has an endothermic melting peak at about 190° C. The melting enthalpy of the endothermic signal Is 130 J/g±5 J/g. The measurement Is carried out on a Perkin Elmer DSC 7 in a crimped pan with a heating rate of 10 K/minute., The typical sample quantity is about 2 mg. As a typical distinguishing feature compared with the modification B and the acetone solvate, ethanol solvate, the thermogram of the modification A has no further thermal signal (see Table 1a below):
It has an endothermic peak in addition to the one at about 190° C., at 97° C. and melting/crystallization signals at about 181° C. […] The measurement is done as described above.

[2] = Conversion between crystal forms / thermodynamic stability
[3] = Stability of the crystal form in the presence of water
[4] = compared to modification B and the ethanol, acetone solvate

solubility (Solubility): poor
Structure (SMILES): CCCCCNC(=N)N/N=C/c1c[nH]c2ccc(OC)cc12.O=C(O)/C=C\C(=O)O [tegaserod hydrogen maleate, 3-(5-methox-1H-indol-3-yl-methylene)-N-pentylcarbazimidamide hydrogen maleate]

conversion of crystal form when heating is applied ([1]; DSC, heating rate 10 K/minute): converts into modification A
Structure (SMILES): CCCCCNC(=N)N/N=C/c1c[nH]c2ccc(OC)cc12.O=C(O)/C=C\C(=O)O [modification B]
conversion of crystal form ([2]; under certain conditions, e.g. heat or water containing organic solvents): completely or partly be converted into modification A

stability when exposed to heat [1, 4]: more stable when exposed to heat
stability in the presence of water [3, 4]: more stable In the presence of water
Structure (SMILES): CCCCCNC(=N)N/N=C/c1c[nH]c2ccc(OC)cc12.O=C(O)/C=C\C(=O)O [modification A, modification A of the hydrogen maleate salt of 3-(5-methoxy-1H-indol-3-yl-methylene)-N-pentylcarbazimidamide]
thermodynamic stability ([2]; relative to modification B): thermodynamically more stable than modification B

conversion of crystal form by equilibration with water ([3]; equilibration with water): can be transformed into modification A
Structure (SMILES): CCCCCNC(=N)N/N=C/c1c[nH]c2ccc(OC)cc12.O=C(O)/C=C\C(=O)O [solvate with acetone]
